Molecules are shown by their SMILES. “Also recorded” adds a separate entry of the source.

The source of these data is patent US20210130291A1, “METHODS FOR TREATING DIABETES USING VDAC1 INHIBITORS” (THE NATIONAL INSTITUTE FOR BIOTECHNOLOGY IN THE NEGEV LTD., priority 2016, published 2021).

The target of experiment [1] is T1, plasma membrane targeted VDAC1 (plVDAC1) (Mus musculus, UniProt Q60932).
T1 construct: expressed in transfected cells; host or cells: INS-1 832/13 cells (rat insulinoma), transient transfection; plasmid a gift from Dr. R. Buettner
Nature of the experiment: ATP release and ATP content of INS-1 cells transfected with plasma membrane targeted VDAC1. Type of experiment: cell-based. The note with it: plVDAC1-transfected INS-1 cells, 1 h at 1 mM glucose; for ATP release (loss of cellular ATP): VDAC1-ab 10 nM, metformin, AKOS, VBIT-4 20 μM each (FIG. 4c). As to the method: (§1) ATP release from isolated mouse or human islets or from INS-1 cells after transfection with mitochondrial targeted VDAC1 (mtVDAC1) or plasma membrane targeted VDAC1 (plVDAC1) plasmids was determined using a luminometric assay kit according to manufacturer's recommendation (Biovision). After incubation of islets (50/vial) or INS-1 cells for 60 min, an aliquot of the media was removed for subsequent measurements of released ATP. Then the islets or INS-1 cells were washed 3 times and the lysates were used for measurements of ATP and protein contents followed the protocol provided by the vendor.
INS-1 cells were transiently transfected with a plasmid encoding plasma membrane targeted VDAC1 (pVDAC1) as described in the Material and Method section herein above and in Example 3 (see also Buettner et al 2000. PNAS 97:3201-3206). After transfection (24-32 h and 2-4 h recovery in normal culture medium, RPMI 1640 with complete supplement) the INS-1 cells were washed followed by preincubation in SAB-buffer (See Material and Method above) containing 2.8 mM glucose. The final 1 h incubation was performed in SAB-buffer containing 1 mM glucose and the VDAC1 inhibitory compounds to be tested. At the end, the cells were lysed using lysis buffer, sonicated and the lysate as well as the incubation medium were analyzed for ATP content using a commercially available kit (Biovision, K354-100). Cellular protein content was analyzed by Pierce™ BCA protein assay kit (Thermo Scientific, USA).

In experiment [2] the test system is VDAC1 expression in INS-1 cells. The experiment in a line: VDAC1 expression in INS-1 cells cultured at 5 or 20 mM glucose. Type of experiment: cell-based, rat. The following applies: INS-1 cells cultured 72 h at 20 mM glucose; VDAC1ab 10 nM, metformin, AKOS, VBIT-4 20 μM each (FIG. 4l, 4m). As to the method:
INS-1 832/13 cells (kindly donated by Dr. C. B. Newgaard, Duke University, USA) were cultured in RPMI-1640 containing 11.1 mM D-glucose and supplemented with 10% fetal bovine serum, 100 U/ml penicillin (Gibco), 100 µg/ml streptomycin (Gibco), 10 mM HEPES, 2 mM glutamine, 1 mM sodium pyruvate, and 50 µM β-mercaptoethanol (Sigma), at 37° C. in a humidified atmosphere containing 95% air and 5% CO2. For VDAC1 over-expression by VDAC1 plasmid (1 μg/ml) and VDAC2 down-regulation by and siRNA, INS1 832/13 cells were cultured to 60% confluence. To study the long-term effects (24-72 h) of high glucose (20 mM) (glucotoxicity) compared to basal glucose (5 mM), INS-1 832/13 cells were cultured with RPMI 1640 complete media (Ahmed, M., et al., 2010. Islets 2, 283-292) in the presence or absence of indicated agents and thereafter VDAC1 expression, cell viability and function was measured.
Total RNA from handpicked mouse islets, human donor islets (Diabetic and non-diabetic) or INS1 832/13 cells were extracted using RNAeasy (Qiagen, Hilden, Germany). RNA ([…]) was used for cDNA synthesis with SuperScript (Invitrogen, Carlsbad, Calif., USA). Concentration and purity of total RNA was measured with a NanoDrop ND-1000 spectrophotometer (A260/A280>1.9 and A260/A230>1.4) (NanoDrop Technologies, Wilmington, Del.) and RNA Quality Indicator (RQI) higher than 8.0 (Experion Automated Electrophoresis, Bio-Rad, USA) was considered to be high-quality total RNA preparations. A 10 μl of reaction mixture with 20 ng cDNA, 5 μl TaqMan mastermix (Applied Biosystems, Foster City, Calif., USA), and 100 nM TagMan gene expression assay were run in a 7900HT Fast Real-Time System (Applied Biosystems). The qPCR was carried out as follows: 50° C. for 2 minutes, 95° C. for 10 minutes, 40 cycles of 95° C. for 15 seconds, and 60° C. for 1 minute. The amount of mRNA was calculated relative to the amount of housekeeping genes (GAPDH, PPIA or HPRT) mRNA in the same sample by the formula X0/R0=2CtR-CtX, where X0 is the original amount of mRNA for the gene of interest, R0 is the original amount of HPRT mRNA, CtR the Ct value for HPRT, and CtX the Ct value for the gene of interest. Primer sequences are provided upon request.

For the next experiment, the system named is islets of C57/BL mice. The experiment in a line: ATP content and GSIS in islets of control C57/BL mice. Type of experiment: cell-based, mouse. The note with it: VDAC1 antibody 10 nM; for GSIS: others 20 μM (FIG. 7e); for ATP content: others 20 μM (FIG. 7d). As to the method: 5 weeks old db/db mice and control (C57/bl) (Janvier Laboratory, France), weighing 18-25 g, were used throughout the experiments. They were given a standard pellet diet (B&K) and tap water ad libitum. The experimental procedures were approved by the Ethics Committee for Animal Research at Lund University. Isolation of pancreatic islets was performed by retrograde injection of a collagenase solution via the bile-pancreatic duct and islets were then collected under a stereomicroscope at room temperature.
Human pancreatic islets were collected under a stereomicroscope at room temperature and cultured at 5.5 or 20 mM glucose in the absence or presence of test agents for 72 h. Thereafter the islets were washed and preincubated for 30 min at 37° C. in Krebs Ringer bicarbonate buffer, pH 7.4, supplemented with N-2 hydroxyethylpiperazine-N′-2-ethanesulfonic acid (10 mM), 0.1% bovine serum albumin, and 1 mM glucose. Each incubation vial contained 12 islets in 1.0 ml KRB buffer solution and treated with 95% O2 and 5% CO2 to obtain constant pH and oxygenation. After preincubation, the buffer was changed to a medium containing either 1 mM or 16.7 mM glucose. The islets were then incubated for 1 h at 37° C. in a metabolic shaker (30 cycles per min). Immediately after incubation an aliquot of the medium was removed for analysis of insulin and the islets were incubated in acid-ethanol for insulin content determination by radioimmunoassay.
as §1

T1 sequence (Q60932 whole entry): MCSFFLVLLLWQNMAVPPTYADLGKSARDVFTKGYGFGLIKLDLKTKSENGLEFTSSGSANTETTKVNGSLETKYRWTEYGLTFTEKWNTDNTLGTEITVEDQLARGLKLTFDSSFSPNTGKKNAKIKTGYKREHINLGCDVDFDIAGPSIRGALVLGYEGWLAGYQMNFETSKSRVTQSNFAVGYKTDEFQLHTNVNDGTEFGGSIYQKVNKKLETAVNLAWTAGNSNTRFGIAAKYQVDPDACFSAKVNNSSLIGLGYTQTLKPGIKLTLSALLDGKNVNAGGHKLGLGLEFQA

For `O=C(CC(CO)N1CCN(c2ccc(OC(F)(F)F)cc2)CC1)Nc1ccc(Cl)cc1` (racemic) [VBIT-4, N-(4-chlorophenyl)-4-hydroxy-3-(4-(4-(trifluoromethoxy)phenyl)-piperazin-1-yl)butanamide], the ATP release entry in experiment [1] (racemate and enantiomers (FIG. 9a), listed as racemic VBIT-4) is recorded as “efficiently inhibit ATP release; also recorded: no discernible difference”. Besides, the “cellular ATP content” value in experiment [1] (racemate and enantiomers (FIG. 9b), listed as racemic VBIT-4) is “increase cellular ATP content; also recorded: intermediate between that of its enantiomers 1 and 2”. In experiment [1], the “ATP release (loss of cellular ATP)” value is recorded as “prevented; also recorded: rapidly inhibited”. In experiment [2], the “glucose evoked VDAC1 upregulation (total VDAC1 expression)” value is “abrogated the glucose evoked VDAC1 upregulation”. In addition, in the experiment on islets of C57/BL mice, the GSIS entry was “do not affect” and the ATP content result was “do not affect”.
On to `CN(C)C(=N)N=C(N)N` [metformin], for which the “ATP release (loss of cellular ATP)” value in experiment [1] is on record as “prevented; also recorded: rapidly inhibited”. For the same molecule, the “glucose evoked VDAC1 upregulation (total VDAC1 expression)” value in experiment [2] is given as “abrogated the glucose evoked VDAC1 upregulation”. Further, in the experiment on islets of C57/BL mice, the GSIS result was “do not affect” and the ATP content entry was “do not affect”.
